Source: patent US11000627B2, “Treatment of implants with phosphonic acid compounds” (Nano Bridging Molecules SA, priority 2016, dated 2021)
Marks after values point to notes of the source that are not given here.

What was measured:
[1] = XPS phosphorus over metal ratio on ceramic dental implants; type: physicochemical; settings: sonicated 70° C. 60 min, Metal = Al2s + Zr3d + Y3d
Experimental: A ceramic dental implant (alumina toughened zirconia, yttria stabilized; length 11.0 mm, diameter 3.8 mm) was provided with a smooth surface. The dental implant was immersed in 50 ml of a 2% (v/v) aqueous solution of deconex 15 PF-x (which is a phosphate free, potassium hydroxide based standard cleaning agent). The solution was placed in an ultrasonic bath (output frequency 30 kHz) and sonicated at 70° C. for 15 min. This step was repeated a second time. The implant was removed from the cleaning agent solution and rinsed with water as follows: 2 times with 50 ml, swirling at room temperature; 3 times with 50 ml, sonicating for 2 min at 70° C. The implant was then placed into 15 ml of a 0.7 mM aqueous solution of 1,1,3,3-propane tetraphosphonic acid. The solution was placed in the ultrasonic bath and sonicated at 70° C. for 60 min. The implant was rinsed with water as follows: 1 time with 10 ml, swirling at room temperature; 2 times with 10 ml, sonicating for 2 min at 65° C.; 1 time with 10 ml, swirling at room temperature. The dental implant was dried in a desiccator over P2O5 and under vacuum (ca 20 mbar) for at least 3 hours.
Following the surface treatment with one phosphonic acid compound as described in Examples 1 to 7 the samples were analyzed by X-ray photoelectron spectroscopy (XPS). XPS analyses were performed on an Axis Ultra spectrometer from Kratos (Kratos, Manchester, U.K.) equipped with a concentric hemispherical analyzer and using a monochromatized aluminum anode X-ray source (Al Kα1,2 1486.6 eV, full width at half maximum, fwhm=0.85 eV, 15 kV, 150 W). The samples were investigated under ultrahigh vacuum conditions: 10^−8-10^−7 Pa. Spectra were taken at a 90° takeoff angle with respect to the surface. A sample area of 300×700 μm^2 or 700×700 μm^2 was analyzed with a pass energy of 80.0 eV for survey scans. The spectrometer was calibrated by using Cu 2p3/2 (932.7 eV) and Au 4f7/2 (84.0 eV) signals. Surface sensitivity factors used to determine the atomic concentrations were those of the instrument. Spectra were peak fitted after background subtraction by assuming a Gaussian/Lorentzian (90-70/10-30) peak shape. All peaks between 0 eV to 1200 eV were inspected.
The phosphorus over metal ratio (“Phosphorus/Metal”) was calculated dividing the % atomic concentration of phosphorus by the sum of the % atomic concentrations of all metals expected in the analyzed sample.
Four ceramic dental implants (alumina toughened zirconia, yttria stabilized; length 11.0 mm, diameter 3.8 mm) were provided with a smooth surface. The dental implants were immersed in 300 ml of a 2% (v/v) aqueous solution of deconex 15 PF-x (which is a phosphate free, potassium hydroxide based standard cleaning agent). […] The samples were analyzed by X-ray photoelectron spectroscopy (XPS). […]

[2] = Thickness of phosphonic acid layer by depth profiling using XPS; type: physicochemical; settings: for Phosphorus/Metal: Metal = Zr3d + Y3d
Experimental: Two ceramic discs (yttria stabilized zirconia; length 5.0 mm, diameter 1.0 mm) were provided with a roughened surface, produced by sand blasting and acid etching according to industry standards. The discs were immersed in 80 ml of a 2% (v/v) aqueous solution of deconex 15 PF-x (which is a phosphate free, potassium hydroxide based standard cleaning agent). The solution was placed in an ultrasonic bath (output frequency 30 kHz) and sonicated at 70° C. for 15 min. This step was repeated a second time. The discs were removed from the cleaning agent solution and rinsed with water as follows: 2 times with 90 ml, swirling at room temperature; 3 times with 90 ml, sonicating for 2 min at 70° C. The discs were then placed into 2 glass bottles and immersed into 2.5 ml of a 0.7 mM aqueous solution of 1,1,3,3-propane tetraphosphonic acid. The solutions were placed in the ultrasonic bath and sonicated at 70° C. for 60 min. The discs were rinsed with water as follows: 1 time with 10 ml, swirling at room temperature; 1 time with 10 ml, sonicating for 2 min at 65° C.; 1 time with 10 ml, swirling at room temperature. The discs were dried in a desiccator over P2O5 and under vacuum (ca 20 mbar) for at least 3 hours.
Following the surface treatment, the thickness of the phosphonic acid layer was determined by depth profiling using XPS. Ion gun sputtering cycles were alternated with XPS measurements. An ion gun was used to etch the material for a defined period of time. Once turned off, XPS spectra were acquired. The depth profiles were performed using a Kratos AXIS Nova high resolution spectrometer. An Al-standard source was used for the measurement. Depth profile sputtering was performed by scanning a 3.8 keV Ar+ beam at 100 μA extractor current over an area of 4 mm×4 mm. The sputter rate of Ta2O5 standards measured under these conditions (6 nm/min) was used to convert sputter time in approximate sputter depth. Spectra were measured after the following sputtering times: 0, 5, 10, 15, 20, 30, 40, 60 sec. Spectra were peak fitted after background subtraction by assuming a Gaussian/Lorentzian (90-70/10-30) peak shape. All peaks between 0 eV to 1200 eV were inspected.
The phosphorus peak was measured at % atomic concentrations close to the detection limit (0.5%) after 10 seconds of sputtering.

Work on `O=P(O)(O)C(CC(P(=O)(O)O)P(=O)(O)O)P(=O)(O)O` [1,1,3,3-propane tetraphosphonic acid] yielded a Phosphorus/Metal ([1]; 0.7 mM) of 0.12, a Phosphorus/Metal ([1]; 2.5 mM) of 0.12 and a Phosphorus/Metal ([1]; 5 mM) of 0.11. The Phosphorus/Metal ([1]; 10 mM) was 0.12, the thickness of monolayer ([2]; 0.7 mM, sonicated 70° C. 60 min, sputter depth from Ta2O5 standard rate) was “about 1 nm” and the Phosphorus/Metal ([2]; sputtering 0 sec, depth 0 nm) was 0.18^b. The Phosphorus/Metal ([2]; sputtering 5 sec, depth 0.5 nm) was 0.03^b, the Phosphorus/Metal ([2]; sputtering 10 sec, depth 1 nm) was 0.02^b and the Phosphorus/Metal ([2]; sputtering 15 sec, depth 1.5 nm) was 0.02^b. For the same molecule, the Phosphorus/Metal ([2]; sputtering 20 sec, depth 2 nm) was 0.01^b, the Phosphorus/Metal ([2]; sputtering 30 sec, depth 3 nm) was 0.02^b and the Phosphorus/Metal ([2]; sputtering 40 sec, depth 4 nm) was 0.01^b. For the same molecule, the Phosphorus/Metal ([2]; sputtering 60 sec, depth 6 nm) was 0.00^b.
